From patent US20230089273A1, “METHODS FOR MATURING AN ARTERIOVENOUS FISTULA” (ALUCENT BIOMEDICAL, INC., priority 2020, published 2023)

Legend:
[1] = test system: Femoral AVFs in young Wistar male rats; test: Rat femoral AVF model, histology and morphometry (VVG); format: in vivo
Procedure: (§1) Femoral AVFs were created in young Wistar male rats by connecting the femoral artery (side) and femoral vein (end) in the same limb. FIGS. 1A-B show the surgical procedure. Immediately after the blood flow was restored and dilatation of the femoral vein occurred, a 10 μl -drop of a composition comprising 2 mg/ml Compound of Formula (I) in PBS was placed at the AVF perivascularly and incubated for 5 minutes, to allow the Compound of Formula (I) to diffuse into the vascular wall. The Compound of Formula (I) was activated by a 1 minute illumination by 450 nm light. A control group of young Wistar male rats received a 10 μl -drop of phosphate buffered saline and the same light activation. The rats' skin was closed immediately after light activation. FIG. 1C is a photograph of the incubation with NVS, applied perivascularly on the anastomosis to allow the compound to diffuse into the vascular tissue. FIG. 1D is a photograph of the small molecule treated area being exposed to 1 minute of illumination with a 450 -nm light source. FIG. 1E depicts fluorescence images after following light activation, 2 animals were sacrificed and their vessels observed on a fluorescence microscope at 450 nm excitation for NVS.
Rats were euthanized 1 week (early time point, 4 per group) and 4 weeks (later time point, 10 per group) post-AVF creation for histology and morphometry. Verhoeff-Van Gieson (VVG)-stained thin cross-sections were used to measure the area enclosed by internal elastic lamina (IEL), the area of open lumen, and the area of neointimal hyperplasia (NH) by Image J software. Percent open lumen area=open lumen area/IEL-enclosed area×100%. These analyses were done at three locations: the entire AVF, the AVF venous limb, and the AVF arterial limb.
An unpaired, two-tailed t-test was used to determine the statistical significance between the two treatment groups (no-NVS (i.e., control) vs. NVS (treatment with Compound of Formula (I))) in each of the data sets, with α=0.05.

MMP-2 = test: Immunohistochemistry of the AVF: MMP-2; format: in vivo, rat; details: 4 weeks
Source text: (§2) Based on the results from the morphometric analysis in Example 1, the expression level of several molecular targets associated with AVF maturation failure (i.e., MMP2-MMP-9, Ki-67, and IL6) in the AVF vessels at the 4-week time point were selected for further investigation.
(§3) But excessive fibrosis of the vessel walls due to local inflammation as well as the circumferential arrangement of newly synthesized collagen fibers has shown a positive association with AVF non-maturation (possibly due to decreasing the distensibility of the veins as they go through the arterialization process). MMP-9 is an inflammatory marker, and although MM-2 is usually not considered an inflammatory marker, both metalloproteinases have nearly identical ECM substrates and are important in vascular remodeling. […] Ki-67 is a marker of cell proliferation, which allows assessing the proliferation of vascular wall cells during the AVF development process.

MMP-9 = test: Immunohistochemistry of the AVF: MMP-9; format: in vivo, rat; details: 4 weeks
Source text: as §2, §3

IL-6 = test: Immunohistochemistry of the AVF: IL-6; format: in vivo, rat; details: 4 weeks
Source text: as §2, §3

Ki-67 = test: Immunohistochemistry of the AVF: Ki-67; format: in vivo, rat; details: entire AVF, 4 weeks
Source text: as §2, §3

HUVECs = test: Cell death (apoptosis) assay, R&D system kit, HUVEC; format: cell-based; details: 0.25, 2.5, 25 μg/ml, 5 min, 450 nm light 1 min, D0-D3, FIG. 12A
Procedure: (§4) Cell death assays used the cell death detection R&D system kit to detect cell death via apoptosis. Cell density was 1×10^5 per well in a 96-well plate for R&D system kit. HUVECs and HASMCs were treated with NVS in different concentrations (0, 0.25, 2.5, and 25 μg/ml) in serum free medium for 5 minutes in the incubator. After removing NVS, cells were washed with serum free medium once, and the plate was refilled with 200 μl serum free medium in each well. Cells were treated using 450 nm light for 1 minute at room temperature, and then serum free medium was removed and each well was refilled with 200 μl of medium supplemented with 10% serum. At 0, 1, 2, and 3 days post-treatment (D0, D1, D2, and D3), cell death assay was performed according to the manufacturer's protocol. Positive controls were cells incubated with hypertonic buffer (10 mM Tris PH 7.4, 400 mM NaCl, 10 mM MgCl2) at 37° C. for 2 hours.

HASMCs = test: Cell death (apoptosis) assay, R&D system kit, HASMC; format: cell-based; details: 0.25, 2.5, 25 μg/ml, 5 min, 450 nm light 1 min, D0-D3, FIG. 12B
Procedure: as §4

[2] = test system: collagen fibers in AVF medial layer; test: Multiphoton / SHG imaging of collagen fibers in AVF; format: in vivo, rat
Procedure: Second harmonic generation (SHG) imaging was performed on 5 μm thick formalin-fixed paraffin embedded (FFPE) sections using Leica SP8 Dive with spectral tunable detection. Collagen fiber orientation in the medial layer was analyzed in relationship to the lumen. Each sample was divided into 4 quadrants and the medial layer was examined in each quadrant; the area of examination for each quadrant was 25 μm^2. The same images were used for other collagen morphology using the MIPAR image software analysis.

[3] = test system: native blood vessels, anastomosis area; test: Fluorescence imaging of vessels after NVS and laser treatment; format: in vivo, rat; details: vessels harvested immediately after NVS and laser treatment, FIG. 1E
Procedure: as §1, with “FIGS. 1C-E show photographs of the surgical procedure described in Example 1. (C) AVF surgery area was incubated with NVS solution for 5 min; (D) NVS was activated by laser at 450 nm for 1 min; (E) Fluorescent images of native blood vessels that are harvested immediately after the NVS and laser treatment. […] Femoral” for “Femoral”, “FIG. 1D is a photograph of the small molecule treated area being exposed to 1 minute of illumination with a 450 -nm light source.” left out

[4] = week 4, trend, not statistically different

## NCCOCCOCCNc1ccc2c3c(cccc13)C(=O)N(CCOCCOCCN1C(=O)c3cccc4c(NCCOCCOCCN)ccc(c34)C1=O)C2=O [NVS, 2,2′-((ethane-1,2-diylbis(oxy))bis(ethane-2,1-diyl))bis(6-((2-(2-(2-aminoethoxy)ethoxy)ethyl)amino)-1H-benzo[de]isoquinoline-1,3(2H)-dione)]
[1]; 4 weeks, p=0.009, FIG. 6
  AVF venous limb % open lumen area, fold larger than control: 1.98 fold
[1]; 4 weeks, p=0.014, FIG. 6
  AVF venous limb open lumen area, fold larger than control: 4.18 fold
[1]; 4 weeks, p=0.052, FIG. 5
  entire AVF % open lumen area, fold larger than control: 1.49 fold
[1]; 4 weeks, p=0.062, FIG. 5
  entire AVF open lumen area, fold larger than control: 2.25 fold
[1]; 10 μl drop of 2 mg/ml in PBS perivascular, 5 min, 450 nm light 1 min
  tolerability of treatment: tolerated the treatment well
[1]; by 4 weeks after AVF creation surgery
  venous diameter vs PBS control: enlarged venous diameter
[1]; entire AVF, 1 week
  all four morphometric parameters (IEL-enclosed area, neointimal lesion area, open lumen area, % area of open lumen) vs PBS: similar
[1]; regardless of the locations
  NH (neointimal hyperplasia) area vs control: without significantly affecting
[1]; summary statement
  AVF open lumen area, effect of treatment: significantly increased
MMP-2; arterial limb
  MMP-2 expression level vs PBS group: trending lower
MMP-2; entire AVF
  MMP-2 expression level vs PBS group: trending lower
MMP-2; venous limb, p=0.015, FIG. 8C
  MMP-2 area stained positive, fold lower than PBS group: 1.8 fold
MMP-9; arterial limb, p=0.036, FIG. 9D
  MMP-9 % area stained positive, fold lower than PBS group: 2.4 fold
MMP-9; entire AVF
  MMP-9 expression level vs PBS group: trending lower
MMP-9; venous limb, p=0.019, FIG. 9D
  MMP-9 % area stained positive, fold lower than PBS group: 1.8 fold
IL-6; arterial limb, p=0.015, FIG. 10C
  IL-6 mean gray value, fold lower than PBS group: 1.6 fold
IL-6; entire AVF, p=0.027, FIG. 10C
  IL-6 mean gray value, fold lower than PBS group: 1.4 fold
IL-6; venous limb
  IL-6 expression level vs PBS group: trending lower
Ki-67
  Ki-67 expression level vs PBS group: similar
HUVECs
  cell death via apoptosis: minimal cell death
HASMCs
  cell death via apoptosis: minimal cell death
[2]; AVFs at week 4, not statistically significant vs PBS (25%)
  analyzed regions exhibiting favorable collagen orientation for AVF maturation: 58%
[2]; [4]
  collagen shape features (roundness, roughness, eccentricity) vs PBS treated samples: more defined shape features
  overall collagen area vs PBS treated samples: less overall collagen area
[3]
  penetration into vascular tissue (green fluorescence): penetration throughout the anastomosis area
